# In patent US20250115583A1, “BICYCLIC INDAZOLE GLUCOCORTICOID RECEPTOR ANTAGONISTS” (Corcept Therapeutics Incorporated, priority 2021, published 2025):
# Target: glucocorticoid receptor (Homo sapiens (Human), UniProt P04150)
# Assay: HepG2 TAT assay: inhibition of dexamethasone-induced tyrosine aminotransferase (TAT) activity
# Format: cell-based
# Settings: HepG2 cells, challenge of 100 nM dexamethasone, 18-24 hr; IC50 converted to Ki by Cheng and Prusoff equation
# Procedure: Glucocorticoid mediated activation of TAT occurs by transactivation of glucocorticoid response elements in the TAT promoter by glucocorticoid receptor-agonist complex.
# HepG2 cells were cultured using MEME media supplemented with 10% (v/v) foetal bovine serum; 2 mM L-glutamine and 1% (v/v) NEAA at 37° C., 5%/95% (v/v) CO2/air.
# Compounds were serially half log diluted in 100% (v/v) dimethylsulphoxide from a 10 mM stock.
# HepG2 cells were then lysed with 30 μl of cell lysis buffer containing a protease inhibitor cocktail for 15 minutes at 4° C. […] After 2 hours incubation at 37° C. the reaction was terminated by the addition of 15 μl of 10M aqueous potassium hydroxide solution, and the plates incubated for a further 30 minutes at 37° C.
# [compound] and fitting the data to a 4 parameter logistic equation.
# glucocorticoid receptor, sequence (P04150 whole entry): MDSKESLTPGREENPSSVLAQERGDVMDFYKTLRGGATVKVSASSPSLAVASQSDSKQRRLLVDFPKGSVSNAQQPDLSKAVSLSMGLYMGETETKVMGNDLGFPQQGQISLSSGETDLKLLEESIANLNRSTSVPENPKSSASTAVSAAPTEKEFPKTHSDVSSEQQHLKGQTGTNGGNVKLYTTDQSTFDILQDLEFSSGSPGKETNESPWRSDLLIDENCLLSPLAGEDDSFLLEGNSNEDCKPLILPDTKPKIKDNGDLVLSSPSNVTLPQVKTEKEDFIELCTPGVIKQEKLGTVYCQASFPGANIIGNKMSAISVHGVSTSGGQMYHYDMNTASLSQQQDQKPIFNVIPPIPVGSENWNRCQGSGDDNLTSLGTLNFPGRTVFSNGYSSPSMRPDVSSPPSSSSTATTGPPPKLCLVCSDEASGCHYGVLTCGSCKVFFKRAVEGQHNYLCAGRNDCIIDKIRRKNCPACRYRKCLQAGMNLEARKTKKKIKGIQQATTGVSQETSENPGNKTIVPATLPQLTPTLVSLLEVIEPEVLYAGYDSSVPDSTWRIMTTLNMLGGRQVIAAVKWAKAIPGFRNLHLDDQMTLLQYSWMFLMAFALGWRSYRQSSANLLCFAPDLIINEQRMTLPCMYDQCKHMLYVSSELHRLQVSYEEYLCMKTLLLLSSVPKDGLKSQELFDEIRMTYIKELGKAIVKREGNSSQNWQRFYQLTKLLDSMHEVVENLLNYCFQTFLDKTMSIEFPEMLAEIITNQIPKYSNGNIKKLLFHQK
row,Ki [nM],Structure (SMILES)
1,190,"Cc1cc2c(cnn2-c2ccc(F)cc2)cc1[C@]12CN(S(=O)(=O)c3cnn(C)n3)C[C@H]1[C@@H]2C(=O)Nc1ccc(F)cn1 (stereo in doubt) [Example 57, 1-(1-(4-fluorophenyl)-6-methyl-1H-indazol-5-yl)-N-(5-fluoropyridin-2-yl)-3-((2-methyl-2H-1,2,3-triazol-4-yl)sulfonyl)-3-azabicyclo[3.1.0]hexane-6-carboxamide]"
2,90,"CC(=O)N1C[C@H]2[C@H](C(=O)Nc3ccc(F)cn3)[C@@]2(c2cc3cnn(-c4ccc(F)cc4)c3cc2C)C1 (stereo in doubt) [Example 68, 3-acetyl-1-(1-(4-fluorophenyl)-6-methyl-1H-indazol-5-yl)-N-(5-fluoropyridin-2-yl)-3-azabicyclo[3.1.0]hexane-6-carboxamide]"
3,23,"Cc1cc2c(cnn2-c2ccc(F)cc2)cc1[C@@]12CN(C(=O)c3ccccc3)C[C@@H]1[C@H]2c1ccccc1 (stereo in doubt) [Example 110, (1-(1-(4-fluorophenyl)-6-methyl-1H-indazol-5-yl)-6-phenyl-3-azabicyclo[3.1.0]hexan-3-yl)(phenyl)methanone]"
4,26,"Cc1cc2c(cnn2-c2ccc(F)cc2)cc1[C@@]12CN(C(=O)c3cccc(C#N)c3)C[C@@H]1[C@H]2c1ccccc1 (stereo in doubt) [Example 114, 3-(1-(1-(4-fluorophenyl)-6-methyl-1H-indazol-5-yl)-6-phenyl-3-azabicyclo[3.1.0]hexane-3-carbonyl)benzonitrile]"
5,36,"Cc1cc2c(cnn2-c2ccc(F)cc2)cc1[C@@]12CN(C(=O)c3ccc(C#N)cc3)C[C@@H]1[C@H]2c1ccccc1 (stereo in doubt) [Example 115, 4-(1-(1-(4-fluorophenyl)-6-methyl-1H-indazol-5-yl)-6-phenyl-3-azabicyclo[3.1.0]hexane-3-carbonyl)benzonitrile]"
6,31,"Cc1cc2c(cnn2-c2ccc(F)cc2)cc1[C@@]12CN(C(=O)c3ccccn3)C[C@@H]1[C@H]2c1ccccc1 (stereo in doubt) [Example 116, (1-(1-(4-fluorophenyl)-6-methyl-1H-indazol-5-yl)-6-phenyl-3-azabicyclo[3.1.0]hexan-3-yl)(pyridin-2-yl)methanone]"
7,34,"Cc1cc2c(cnn2-c2ccc(F)cc2)cc1[C@@]12CN(C(=O)c3cccc(F)c3)C[C@@H]1[C@H]2c1ccccc1 (stereo in doubt) [Example 117, (3-fluorophenyl)(1-(1-(4-fluorophenyl)-6-methyl-1H-indazol-5-yl)-6-phenyl-3-azabicyclo[3.1.0]hexan-3-yl)methanone]"
8,52,"Cc1cc2c(cnn2-c2ccc(F)cc2)cc1[C@@]12CN(C(=O)C3CCC3)C[C@@H]1[C@H]2c1ccccc1 (stereo in doubt) [Example 120, cyclobutyl(1-(1-(4-fluorophenyl)-6-methyl-1H-indazol-5-yl)-6-phenyl-3-azabicyclo[3.1.0]hexan-3-yl)methanone]"
9,49,"Cc1cc2c(cnn2-c2ccc(F)cc2)cc1[C@@]12CN(C(=O)N3CCOCC3)C[C@@H]1[C@H]2c1ccccc1 (stereo in doubt) [Example 121, (1-(1-(4-fluorophenyl)-6-methyl-1H-indazol-5-yl)-6-phenyl-3-azabicyclo[3.1.0]hexan-3-yl)(morpholino)methanone]"
10,240,"Cc1noc([C@@H]2[C@H]3CN(S(=O)(=O)c4cnn(C)n4)C[C@]32c2cc3cnn(-c4ccc(F)cc4)c3cc2C)n1 (stereo in doubt) [Example 131, 5-(1-(1-(4-fluorophenyl)-6-methyl-1H-indazol-5-yl)-3-((2-methyl-2H-1,2,3-triazol-4-yl)sulfonyl)-3-azabicyclo[3.1.0]hexan-6-yl)-3-methyl-1,2,4-oxadiazole]"
11,350,"Cc1cc2c(cnn2-c2ccc(F)cc2)cc1[C@@]12CN(S(=O)(=O)c3cnn(C)n3)C[C@@H]1[C@H]2Cn1cccn1 (stereo in doubt) [Example 132, 5-(6-((1H-pyrazol-1-yl)methyl)-3-((2-methyl-2H-1,2,3-triazol-4-yl)sulfonyl)-3-azabicyclo[3.1.0]hexan-1-yl)-1-(4-fluorophenyl)-6-methyl-1H-indazole]"
12,70,"COCCOCCS(=O)(=O)N1C[C@@H]2[C@@H](c3ccccc3)[C@]2(c2cc3cnn(-c4ccc(F)cc4)c3cc2C)C1 (stereo in doubt) [Example 138, 1-(4-fluorophenyl)-5-(3-((2-(2-methoxyethoxy)ethyl)sulfonyl)-6-phenyl-3-azabicyclo[3.1.0]hexan-1-yl)-6-methyl-1H-indazole]"
13,45,"Cc1cc2c(cnn2-c2ccc(F)cc2)cc1[C@@]12CN(S(=O)(=O)C3CCC3)C[C@@H]1[C@H]2c1ccccc1 (stereo in doubt) [Example 139, 5-(3-(cyclobutylsulfonyl)-6-phenyl-3-azabicyclo[3.1.0]hexan-1-yl)-1-(4-fluorophenyl)-6-methyl-1H-indazole]"
14,15,"Cc1cc2c(cnn2-c2ccc(F)cc2)cc1[C@@]12CN(C(=O)c3cccc(N4CCOCC4)c3)C[C@@H]1[C@H]2c1ccccc1 (stereo in doubt) [Example 142, (1-(1-(4-fluorophenyl)-6-methyl-1H-indazol-5-yl)-6-phenyl-3-azabicyclo[3.1.0]hexan-3-yl)(3-morpholinophenyl)methanone]"
15,25,"Cc1cc2c(cnn2-c2ccc(F)cc2)cc1[C@@]12CN(C(=O)c3cccc(C(F)F)c3)C[C@@H]1[C@H]2c1ccccc1 (stereo in doubt) [Example 143, (3-(difluoromethyl)phenyl)(1-(1-(4-fluorophenyl)-6-methyl-1H-indazol-5-yl)-6-phenyl-3-azabicyclo[3.1.0]hexan-3-yl)methanone]"
16,48,"Cc1cc2c(cnn2-c2ccc(F)cc2)cc1[C@@]12CN(C(=O)c3cccc(C(F)(F)F)n3)C[C@@H]1[C@H]2c1ccccc1 (stereo in doubt) [Example 145, (1-(1-(4-fluorophenyl)-6-methyl-1H-indazol-5-yl)-6-phenyl-3-azabicyclo[3.1.0]hexan-3-yl)(6-(trifluoromethyl)pyridin-2-yl)methanone]"
17,16,"Cc1cc2c(cnn2-c2ccc(F)cc2)cc1[C@@]12CN(C(=O)c3ccn(C)n3)C[C@@H]1[C@H]2c1ccccc1 (stereo in doubt) [Example 154, (1-(1-(4-fluorophenyl)-6-methyl-1H-indazol-5-yl)-6-phenyl-3-azabicyclo[3.1.0]hexan-3-yl)(1-methyl-1H-pyrazol-3-yl)methanone]"
18,20,"Cc1cc2c(cnn2-c2ccc(F)cc2)cc1[C@@]12CN(C(=O)c3ncccc3F)C[C@@H]1[C@H]2c1ccccc1 (stereo in doubt) [Example 156, (1-(1-(4-fluorophenyl)-6-methyl-1H-indazol-5-yl)-6-phenyl-3-azabicyclo[3.1.0]hexan-3-yl)(3-fluoropyridin-2-yl)methanone]"
19,18,"Cc1cc2c(cnn2-c2ccc(F)cc2)cc1[C@@]12CN(C(=O)c3ncc(F)cc3F)C[C@@H]1[C@H]2c1ccccc1 (stereo in doubt) [Example 157, (3,5-difluoropyridin-2-yl)(1-(1-(4-fluorophenyl)-6-methyl-1H-indazol-5-yl)-6-phenyl-3-azabicyclo[3.1.0]hexan-3-yl)methanone]"
